For one test, the target named is T1, EGFR (L858R T790M C797S) (Homo sapiens, UniProt P00533, C797S/L858R/T790M).
T1 construct: purchased SignalChem E10-122VG
Put plainly: Biochemical EGFR inhibition assay (Caliper mobility shift), EGFR LRTMCS. The settings on record: LRTMCS (PH) IC50 (nM) @ 1 mM ATP (Num), EGFR LRTMCS mutant. The protocol:
Reactions proceeded until between 10% to 20% total peptides were phosphorylated at room temperature (25° C.) and were terminated with 35 mM 2,2′,2″,2′″-(ethane-1,2-diyldinitrilo)tetraacetic acid (EDTA). Product was detected using the Caliper mobility shift detection method where the phosphorylated peptide (product) and substrate were electrophoretically separated and measured. Percent activity was plotted against log concentration of compound and points to generate an apparent IC50.

The target of test [1] is T2, intracellular phosphorylation of EGFR in NCI-H1975 cell line that harbors the EGFR L858R T790M mutations (Homo sapiens, UniProt P00533, L858R/T790M).
T2 construct: NCI-H1975 cell line that harbors the EGFR L858R T790M mutations (ATCC, CRL-5908); host or cells: NCI-H1975
T2 sequence (P00533 25-1210 T790M/L858R): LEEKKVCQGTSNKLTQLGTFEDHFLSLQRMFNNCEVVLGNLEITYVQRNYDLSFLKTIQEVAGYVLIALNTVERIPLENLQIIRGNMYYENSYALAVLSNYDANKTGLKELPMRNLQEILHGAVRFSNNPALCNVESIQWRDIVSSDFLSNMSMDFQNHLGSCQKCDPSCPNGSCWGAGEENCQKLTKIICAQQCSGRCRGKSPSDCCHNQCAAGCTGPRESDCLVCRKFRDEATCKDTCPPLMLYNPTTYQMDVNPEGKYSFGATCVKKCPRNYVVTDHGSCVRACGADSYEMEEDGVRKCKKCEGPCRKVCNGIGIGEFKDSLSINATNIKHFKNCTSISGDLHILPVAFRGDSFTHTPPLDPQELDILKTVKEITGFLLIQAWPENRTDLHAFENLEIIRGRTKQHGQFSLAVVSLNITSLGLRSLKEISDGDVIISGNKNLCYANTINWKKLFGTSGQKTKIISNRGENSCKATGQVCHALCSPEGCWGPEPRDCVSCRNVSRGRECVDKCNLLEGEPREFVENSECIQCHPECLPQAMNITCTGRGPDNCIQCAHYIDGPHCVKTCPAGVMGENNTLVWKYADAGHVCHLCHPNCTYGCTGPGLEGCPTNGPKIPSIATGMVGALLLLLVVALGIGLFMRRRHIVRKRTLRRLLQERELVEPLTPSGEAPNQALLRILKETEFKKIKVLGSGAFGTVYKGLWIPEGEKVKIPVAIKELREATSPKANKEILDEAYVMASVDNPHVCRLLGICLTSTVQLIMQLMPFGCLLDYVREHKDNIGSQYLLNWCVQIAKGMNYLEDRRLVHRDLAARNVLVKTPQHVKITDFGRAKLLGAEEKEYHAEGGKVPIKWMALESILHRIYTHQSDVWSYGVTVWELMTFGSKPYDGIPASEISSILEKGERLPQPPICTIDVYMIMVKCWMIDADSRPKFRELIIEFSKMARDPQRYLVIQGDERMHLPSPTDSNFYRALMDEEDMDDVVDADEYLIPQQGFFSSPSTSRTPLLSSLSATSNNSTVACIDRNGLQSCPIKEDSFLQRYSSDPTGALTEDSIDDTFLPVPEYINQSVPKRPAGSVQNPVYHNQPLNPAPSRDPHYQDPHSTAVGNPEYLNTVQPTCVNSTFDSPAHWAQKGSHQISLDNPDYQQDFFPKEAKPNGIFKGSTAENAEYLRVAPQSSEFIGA
Kind of test: NCI-H1975 pEGFR AlphaLISA assay. In kind it is cell-based. The settings on record: NCI-H1975 cells (EGFR L858R T790M), p-EGFR (Tyr1068), 4-5 hours incubation. Here is the method: On the next day, the test compounds and DMSO control were added into H1975 cell plate followed by incubation at 37C/5% CO2 for 4-5 hours. […] Then 5 μL of a donor bead mix was added to each well followed by overnight incubation at room temperature in dark. On the next day, the plate was read at a compatible plate reader to obtain pEGFR signal. Percent of pEGFR inhibition was plotted against log concentration of compounds to generate IC50 values.
Background: Alpha assays give light when donor and acceptor beads are brought close together.

The mark [2] stands for this setting: read-out: Ext pEGFR H1975 GMean IC50 (nM) Protocol: @Pharmaron AlphaLISA (Num).

Read-outs that look alike come from different tables or passages of the source.

As a reminder, the IC50 is the concentration that gives 50% inhibition.

T1 sequence (P00533 25-1210 T790M/C797S/L858R): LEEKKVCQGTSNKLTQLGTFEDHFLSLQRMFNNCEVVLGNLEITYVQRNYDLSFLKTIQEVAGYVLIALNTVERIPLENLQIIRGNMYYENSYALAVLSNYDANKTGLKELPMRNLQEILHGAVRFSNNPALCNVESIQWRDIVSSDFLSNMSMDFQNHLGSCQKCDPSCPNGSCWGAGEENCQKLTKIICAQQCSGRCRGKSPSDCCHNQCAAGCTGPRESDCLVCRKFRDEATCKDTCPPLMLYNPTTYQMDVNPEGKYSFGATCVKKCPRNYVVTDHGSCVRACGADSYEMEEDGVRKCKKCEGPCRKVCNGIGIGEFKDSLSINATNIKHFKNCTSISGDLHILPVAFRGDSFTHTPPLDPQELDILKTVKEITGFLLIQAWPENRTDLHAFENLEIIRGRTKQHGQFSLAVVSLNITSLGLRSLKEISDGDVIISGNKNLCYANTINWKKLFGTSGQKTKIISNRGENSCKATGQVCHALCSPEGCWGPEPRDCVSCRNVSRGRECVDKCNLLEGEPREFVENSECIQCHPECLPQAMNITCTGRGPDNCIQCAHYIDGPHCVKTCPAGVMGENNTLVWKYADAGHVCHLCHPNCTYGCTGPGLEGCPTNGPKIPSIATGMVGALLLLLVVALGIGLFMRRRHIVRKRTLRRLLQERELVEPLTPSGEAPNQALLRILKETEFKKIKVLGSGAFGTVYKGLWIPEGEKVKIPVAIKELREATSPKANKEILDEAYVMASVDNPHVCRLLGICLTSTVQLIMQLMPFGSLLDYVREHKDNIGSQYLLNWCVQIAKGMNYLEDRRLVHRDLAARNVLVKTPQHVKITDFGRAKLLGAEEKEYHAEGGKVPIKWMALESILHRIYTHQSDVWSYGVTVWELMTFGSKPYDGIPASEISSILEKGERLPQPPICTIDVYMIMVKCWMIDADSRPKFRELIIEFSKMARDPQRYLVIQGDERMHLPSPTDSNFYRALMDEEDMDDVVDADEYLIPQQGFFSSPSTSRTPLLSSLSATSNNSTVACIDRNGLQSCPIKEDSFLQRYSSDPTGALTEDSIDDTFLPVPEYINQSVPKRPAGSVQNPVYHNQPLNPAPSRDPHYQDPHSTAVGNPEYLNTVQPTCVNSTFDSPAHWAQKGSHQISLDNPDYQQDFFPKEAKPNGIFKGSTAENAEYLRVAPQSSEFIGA

For `C[C@H]1CCN1c1ncc(CC2(C)COC2)c2cc(Nc3ccnc(N4CC[C@@H](O)[C@@](C)(F)C4)n3)ncc12` (single isomer, unassigned) [Example 156, (3S,4R)-3-fluoro-3-methyl-1-(4-((8-((S)-2-methylazetidin-1-yl)-5-((3-methyloxetan-3-yl)methyl)-2,7-naphthyridin-3-yl)amino)pyrimidin-2-yl)piperidin-4-ol or (3S,4R)-3-fluoro-3-methyl-1-(4-((8-((R)-2-methylazetidin-1-yl)-5-((3-methyloxetan-3-yl)methyl)-2,7-naphthyridin-3-yl)amino)pyrimidin-2-yl)piperidin-4-ol], the IC50 on EGFR (L858R T790M C797S) is 20 to 30 nM; in test [1] (setting [2]) it was more than 50 nM.
For `C[C@H](C#N)c1ncc(N2CC[C@H]2C)c2cnc(Nc3ccnc(N4CC[C@@H](O)[C@@](C)(F)C4)n3)cc12` (single isomer, unassigned) [Example 157, (S)-2-(7-((2-((3S,4R)-3-fluoro-4-hydroxy-3-methylpiperidin-1-yl)pyrimidin-4-yl)amino)-4-((R)-2-methylazetidin-1-yl)-2,6-naphthyridin-1-yl)propanenitrile or (R)-2-(7-((2-((3S,4R)-3-fluoro-4-hydroxy-3-methylpiperidin-1-yl)pyrimidin-4-yl)amino)-4-((R)-2-methylazetidin-1-yl)-2,6-naphthyridin-1-yl)propanenitrile], in that order: less than 15 nM and more than 50 nM.
Consider `C[C@H](CO)c1ccc(N2CC[C@H]2C)c2cnc(Nc3ccnc(N4CC[C@@H](O)[C@@](C)(F)C4)n3)cc12` (single isomer, unassigned) [Example 158, (3S,4R)-3-fluoro-1-(4-((5-((S)-1-hydroxypropan-2-yl)-8-((R)-2-methylazetidin-1-yl)isoquinolin-3-yl)amino)pyrimidin-2-yl)-3-methylpiperidin-4-ol or (3S,4R)-3-fluoro-1-(4-((5-((R)-1-hydroxypropan-2-yl)-8-((R)-2-methylazetidin-1-yl)isoquinolin-3-yl)amino)pyrimidin-2-yl)-3-methylpiperidin-4-ol], for which the IC50 was 15 to 20 nM on EGFR (L858R T790M C797S) and 30 to 50 nM in test [1] (setting [2]).
With `CC(C)c1cnc(N2CC[C@@H]2C)c2cnc(Nc3ccnc(N4CC[C@@H](O)[C@@H](F)C4)n3)cc12` (single isomer, unassigned) [Example 159, (3S,4R)-3-fluoro-1-(4-((5-isopropyl-8-((S)-2-methylazetidin-1-yl)-2,7-naphthyridin-3-yl)amino)pyrimidin-2-yl)piperidin-4-ol or (3S,4R)-3-fluoro-1-(4-((5-isopropyl-8-((R)-2-methylazetidin-1-yl)-2,7-naphthyridin-3-yl)amino)pyrimidin-2-yl)piperidin-4-ol], the values for the IC50 (on EGFR (L858R T790M C797S); in test [1] (setting [2])) were less than 15 nM and 10 to 20 nM, respectively.
In the case of `CC(C)c1cnc(N2CC[C@@H]2C)c2cnc(Nc3ccnc(N4CC[C@H](O)[C@H](F)C4)n3)cc12` (single isomer, unassigned) [Example 160, (3R,4S)-3-fluoro-1-(4-((5-isopropyl-8-((S)-2-methylazetidin-1-yl)-2,7-naphthyridin-3-yl)amino)pyrimidin-2-yl)piperidin-4-ol or (3R,4S)-3-fluoro-1-(4-((5-isopropyl-8-((R)-2-methylazetidin-1-yl)-2,7-naphthyridin-3-yl)amino)pyrimidin-2-yl)piperidin-4-ol], the half-maximal inhibitory concentration (IC50) on EGFR (L858R T790M C797S) is less than 15 nM; in test [1] (setting [2]), 10 to 20 nM.
For `C[C@@H]1CCN1c1ncc(-c2cccnc2F)c2cc(Nc3ccnc(N4CC[C@@H](O)[C@@H](F)C4)n3)ncc12` (single isomer, unassigned) [Example 161, (3S,4R)-3-fluoro-1-(4-((5-(2-fluoropyridin-3-yl)-8-((R)-2-methylazetidin-1-yl)-2,7-naphthyridin-3-yl)amino)pyrimidin-2-yl)piperidin-4-ol or (3S,4R)-3-fluoro-1-(4-((5-(2-fluoropyridin-3-yl)-8-((S)-2-methylazetidin-1-yl)-2,7-naphthyridin-3-yl)amino)pyrimidin-2-yl)piperidin-4-ol], the IC50 at EGFR (L858R T790M C797S) was less than 15 nM; in test [1] (Ext pEGFR H1975 GMean IC50 (nM) Protocol: @Pharmaron AlphaLISA (Num)) it was 30 to 50 nM.
With `C[C@@H]1CCN1c1ncc([C@@H]2CCOC2)c2cc(Nc3ccnc(N4CC[C@@H](O)[C@@H](F)C4)n3)ncc12` (single isomer, unassigned) [Example 162, (3S,4R)-3-fluoro-1-(4-((8-((R)-2-methylazetidin-1-yl)-5-((S)-tetrahydrofuran-3-yl)-2,7-naphthyridin-3-yl)amino)pyrimidin-2-yl)piperidin-4-ol or (3S,4R)-3-fluoro-1-(4-((8-((R)-2-methylazetidin-1-yl)-5-((R)-tetrahydrofuran-3-yl)-2,7-naphthyridin-3-yl)amino)pyrimidin-2-yl)piperidin-4-ol], the IC50 is less than 15 nM at EGFR (L858R T790M C797S) and 30 to 50 nM in test [1] (setting [2]).
`CO[C@H]1CCN(c2nccc(Nc3cc4c(C(C)C)cnc(N5CC[C@H]5C)c4cn3)n2)C[C@H]1OCCO` (single isomer, unassigned) [Example 167, 2-(((3R,4S)-1-(4-((5-isopropyl-8-((R)-2-methylazetidin-1-yl)-2,7-naphthyridin-3-yl)amino)pyrimidin-2-yl)-4-methoxypiperidin-3-yl)oxy)ethan-1-ol or 2-(((3S,4R)-1-(4-((5-isopropyl-8-((R)-2-methylazetidin-1-yl)-2,7-naphthyridin-3-yl)amino)pyrimidin-2-yl)-4-methoxypiperidin-3-yl)oxy)ethan-1-ol]: the IC50 on EGFR (L858R T790M C797S) was less than 15 nM; in test [1] (setting [2]), less than 10 nM.
For `CC(C)c1cnc(N2C[C@H](O)[C@H]2C)c2cnc(Nc3ccnc(N4CC[C@@H](O)C(C)(C)C4)n3)cc12` (single isomer, unassigned) [Example 168, (R)-1-(4-((8-((2R,3S)-3-hydroxy-2-methylazetidin-1-yl)-5-isopropyl-2,7-naphthyridin-3-yl)amino)pyrimidin-2-yl)-3,3-dimethylpiperidin-4-ol or (S)-1-(4-((8-((2R,3S)-3-hydroxy-2-methylazetidin-1-yl)-5-isopropyl-2,7-naphthyridin-3-yl)amino)pyrimidin-2-yl)-3,3-dimethylpiperidin-4-ol], in that order: less than 15 nM and 30 to 50 nM.
Take `CC(C)c1cnc(N2C[C@H](O)[C@H]2C)c2cnc(Nc3ccnc(N4CC[C@@H](O)C5(CC5)C4)n3)cc12` (single isomer, unassigned) [Example 169, (R)-5-(4-((8-((2R,3S)-3-hydroxy-2-methylazetidin-1-yl)-5-isopropyl-2,7-naphthyridin-3-yl)amino)pyrimidin-2-yl)-5-azaspiro[2.5]octan-8-ol or (S)-5-(4-((8-((2R,3S)-3-hydroxy-2-methylazetidin-1-yl)-5-isopropyl-2,7-naphthyridin-3-yl)amino)pyrimidin-2-yl)-5-azaspiro[2.5]octan-8-ol]: the values for the IC50 (on EGFR (L858R T790M C797S); in test [1] (setting [2])) were less than 15 nM and 30 to 50 nM, respectively.
In the case of `CC(C)c1cnc(N2C[C@H](O)[C@H]2C)c2cnc(Nc3ccnc(N4CC[C@](C)(O)[C@](C)(F)C4)n3)cc12` (single isomer, unassigned) [Example 170, (3R,4S)-3-fluoro-1-(4-((8-((2R,3S)-3-hydroxy-2-methylazetidin-1-yl)-5-isopropyl-2,7-naphthyridin-3-yl)amino)pyrimidin-2-yl)-3,4-dimethylpiperidin-4-ol or (3S,4R)-3-fluoro-1-(4-((8-((2R,3S)-3-hydroxy-2-methylazetidin-1-yl)-5-isopropyl-2,7-naphthyridin-3-yl)amino)pyrimidin-2-yl)-3,4-dimethylpiperidin-4-ol], the IC50 at EGFR (L858R T790M C797S) was less than 15 nM; in test [1] (setting [2]), 20 to 30 nM.
As to `CC(C)c1cnc(N2C[C@H](O)[C@H]2C)c2cnc(Nc3ccnc(N4CC[C@](C)(O)C(F)(F)C4)n3)cc12` (single isomer, unassigned) [Example 171, (S)-3,3-difluoro-1-(4-((8-((2R,3S)-3-hydroxy-2-methylazetidin-1-yl)-5-isopropyl-2,7-naphthyridin-3-yl)amino)pyrimidin-2-yl)-4-methylpiperidin-4-ol or (R)-3,3-difluoro-1-(4-((8-((2R,3S)-3-hydroxy-2-methylazetidin-1-yl)-5-isopropyl-2,7-naphthyridin-3-yl)amino)pyrimidin-2-yl)-4-methylpiperidin-4-ol], the IC50 at EGFR (L858R T790M C797S) is less than 15 nM; in test [1] (setting [2]), 30 to 50 nM.
`CC(C)c1cnc(N2C[C@H](O)[C@H]2C)c2cnc(Nc3ccnc(N4CC[C@@](C)(O)[C@@H](F)C4)n3)cc12` (single isomer, unassigned) [Example 172, (3S,4R)-3-fluoro-1-(4-((8-((2R,3S)-3-hydroxy-2-methylazetidin-1-yl)-5-isopropyl-2,7-naphthyridin-3-yl)amino)pyrimidin-2-yl)-4-methylpiperidin-4-ol or (3R,4S)-3-fluoro-1-(4-((8-((2R,3S)-3-hydroxy-2-methylazetidin-1-yl)-5-isopropyl-2,7-naphthyridin-3-yl)amino)pyrimidin-2-yl)-4-methylpiperidin-4-ol]: the figures for the IC50 (at EGFR (L858R T790M C797S); in test [1] (setting [2])) were 15 to 20 nM and more than 50 nM, respectively.

The values above are taken from patent publication US20240382483A1, “HETEROCYCLIC EGFR INHIBITORS FOR USE IN THE TREATMENT OF CANCER” (Blueprint Medicines Corporation, priority 2021, published 2024).
